Non-standard residues stand in square brackets, D forms with d. Residues, ends and D or L forms follow the SMILES beside them. ξ: configuration not given here. Tyr(3-OMe) = COc1cc(C[C@H](N)C(=O)O)ccc1O; Phe(3-OMe) = COc1cccc(C[C@H](N)C(=O)O)c1; Dopa = N[C@@H](Cc1ccc(O)c(O)c1)C(=O)O; ξPhe(3-OMe) = COc1cccc(CC(N)C(=O)O)c1; mTyr = N[C@@H](Cc1cccc(O)c1)C(=O)O; ξmTyr = NC(Cc1cccc(O)c1)C(=O)O; ξY = NC(Cc1ccc(O)cc1)C(=O)O; ξD = NC(CC(=O)O)C(=O)O
What was measured:
[1] = Determined to achieve reproducible taste; ++ indicates ~10-40 times as sweet as sucrose
[2] = Determined to achieve reproducible taste; + indicates ~1-5 times as sweet as sucrose
[3] = Determined to achieve reproducible taste; + indicates ~ 1-5 times as sweet as sucrose

Row | Taste [1] | SMILES | other results
1 | ~10-40 times as sweet as sucrose | COC(=O)C(Cc1ccc(O)cc1)NC(=O)[C@@H](N)CC(=O)O (stereo partly specified) (H-Asp-[ξY]-OMe) | 
2 | ~10-40 times as sweet as sucrose | COC(=O)C(Cc1cccc(O)c1)NC(=O)[C@@H](N)CC(=O)O (stereo partly specified) (H-Asp-[ξmTyr]-OMe) | 
3 | ~10-40 times as sweet as sucrose | COC(=O)C(Cc1cccc(OC)c1)NC(=O)[C@@H](N)CC(=O)O (stereo partly specified) (H-Asp-[ξPhe(3-OMe)]-OMe) | 
4 |  | COC(=O)[C@H](Cc1ccc(O)c(O)c1)NC(=O)[C@@H](N)CC(=O)O (H-Asp-[Dopa]-OMe) | Taste [2]: ~1-5 times as sweet as sucrose
5 | ~10-40 times as sweet as sucrose | COC(=O)[C@H](Cc1ccc(O)cc1)NC(=O)[C@@H](N)CC(=O)O (H-Asp-Tyr-OMe) | 
6 | ~10-40 times as sweet as sucrose | COC(=O)[C@H](Cc1ccccc1O)NC(=O)[C@@H](N)CC(=O)O | 
7 |  | COC(=O)[C@H](Cc1ccc(O)c(OC)c1)NC(=O)C(N)CC(=O)O (stereo partly specified) (H-[ξD]-[Tyr(3-OMe)]-OMe) | Taste [2]: ~1-5 times as sweet as sucrose
8 | ~10-40 times as sweet as sucrose | COC(=O)[C@H](Cc1cccc(O)c1)NC(=O)[C@@H](N)CC(=O)O (H-Asp-[mTyr]-OMe) | 
9 |  | COC(=O)[C@H](Cc1ccc(OC)cc1)NC(=O)[C@@H](N)CC(=O)O (H-Asp-Tyr(Me)-OMe) | Taste [3]: ~ 1-5 times as sweet as sucrose
10 | ~10-40 times as sweet as sucrose | COC(=O)C(Cc1ccccc1O)NC(=O)[C@@H](N)CC(=O)O (stereo partly specified) | 
11 | ~10-40 times as sweet as sucrose | COC(=O)[C@H](Cc1cccc(OC)c1)NC(=O)[C@@H](N)CC(=O)O (H-Asp-[Phe(3-OMe)]-OMe) | 
